Here are results for 29 molecules from ChEMBL document CHEMBL1153413, “Pyranonaphthoquinone lactones: a new class of AKT selective kinase inhibitors alkylate a regulatory loop cysteine” (J Med Chem, 2009).

The term IC50 denotes the concentration at which inhibition is half-maximal. Higher therefore signals a need for much substance.

Active and inactive are the calls of the source. The rule behind the calls is not given here.

Assay [1] has as its target T1, RAC-alpha serine/threonine-protein kinase (Homo sapiens, UniProt P31749). The experiment in a line: Inhibition of AKT.
Assay [2] can be described thus: Cytotoxicity against human MDA468 cells expressing AKT. The format is functional, cell-based, MDA-MB-468.
Assay [3] concerns the target T1, RAC-alpha serine/threonine-protein kinase. The experiment in a line: Inhibition of AKT at < 10 uM.

T1 sequence (P31749 whole entry): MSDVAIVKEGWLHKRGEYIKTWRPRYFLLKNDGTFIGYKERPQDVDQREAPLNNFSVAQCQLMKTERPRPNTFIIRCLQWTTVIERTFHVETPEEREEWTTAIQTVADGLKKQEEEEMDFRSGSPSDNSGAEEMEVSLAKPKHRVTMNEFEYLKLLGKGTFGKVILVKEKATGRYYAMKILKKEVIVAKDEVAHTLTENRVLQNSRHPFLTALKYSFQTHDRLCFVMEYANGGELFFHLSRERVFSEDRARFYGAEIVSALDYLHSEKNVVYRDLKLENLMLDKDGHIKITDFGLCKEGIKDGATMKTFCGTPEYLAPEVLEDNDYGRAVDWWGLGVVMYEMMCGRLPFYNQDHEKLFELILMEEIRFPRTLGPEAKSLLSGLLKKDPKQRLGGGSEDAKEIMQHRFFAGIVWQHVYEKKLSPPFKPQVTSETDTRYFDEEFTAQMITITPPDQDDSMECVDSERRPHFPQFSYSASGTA

As to `CCC[C@H]1O[C@@H]2CC(=O)O[C@@H]2C2=C1C(=O)c1c(OC)cccc1C2=O`, the IC50 in assay [1] was 497 nM; in assay [2] (Homo sapiens, MDA-MB-468), 1110 nM.

`O=C1C[C@H]2OCC3=C(C(=O)c4ccccc4C3=O)[C@H]2O1`: the IC50 turned out to be 44 nM in assay [1] and 800 nM in assay [2] (Homo sapiens, MDA-MB-468).

As to `O=C1C[C@H]2O[C@H](c3cccs3)C3=C(C(=O)c4ccccc4C3=O)[C@H]2O1`, the IC50 in assay [1] came out at 57 nM; in assay [2] (Homo sapiens, MDA-MB-468) it was 600 nM. Regarding `C[C@H]1O[C@@H]2CC(=O)O[C@@H]2C2=C1C(=O)c1ccccc1C2=O`, the IC50 in assay [1] was 150 nM; in assay [2] (Homo sapiens, MDA-MB-468), 480 nM.

Consider `CCOC(=O)C[C@@H]1CC2=C(C(=O)c3ccccc3C2=O)[C@@H](C)O1`, for which, in assay [3], the result was inactive. As for `CCOC(=O)C[C@@H]1CC2=C(C(=O)c3ccccc3C2=O)[C@@H](c2cccs2)O1`, in assay [3], the outcome was inactive.

Regarding `CCOC(=O)C[C@@H]1CC2=C(CO1)C(=O)c1ccccc1C2=O`, the outcome in assay [3] was inactive.

Take `O=C1C[C@H]2O[C@@H](c3cccc(O)c3)C3=C(C(=O)c4ccccc4C3=O)[C@H]2O1` (racemic): the IC50 in assay [1] came to 350 nM; in assay [2] (Homo sapiens, MDA-MB-468) it was 1000 nM. `CCC[C@H]1O[C@@H]2CC(=O)O[C@@H]2C2=C1C(=O)c1ccccc1C2=O` (racemic): the IC50 in assay [1] came out at 163 nM; in assay [2] (Homo sapiens, MDA-MB-468) it was 600 nM. The like results for `CC1(C)O[C@@H]2CC(=O)O[C@@H]2C2=C1C(=O)c1ccccc1C2=O` (racemic) were, in that order, 1440 nM and 230 nM. With `O=C1C[C@H]2O[C@H](COCc3ccccc3)C3=C(C(=O)c4ccccc4C3=O)[C@H]2O1` (racemic), the IC50 in assay [1] worked out at 72 nM; in assay [2] (Homo sapiens, MDA-MB-468), 1000 nM. The like results for `O=C1C[C@H]2O[C@@H](c3ccc(O)cc3)C3=C(C(=O)c4ccccc4C3=O)[C@H]2O1` (racemic) were, in that order, 80 nM and 550 nM. Turning to `O=C1C[C@H]2OC3(CCCC3)C3=C(C(=O)c4ccccc4C3=O)[C@H]2O1` (racemic), the IC50 in assay [1] was 295 nM; in assay [2] (Homo sapiens, MDA-MB-468), 1600 nM. As for `Nc1ccc([C@@H]2O[C@@H]3CC(=O)O[C@@H]3C3=C2C(=O)c2ccccc2C3=O)cc1` (racemic), the IC50 in assay [1] came out at 850 nM; in assay [2] (Homo sapiens, MDA-MB-468), 550 nM. The like results for `CCC[C@@H]1O[C@@H]2CC(=O)O[C@@H]2C2=C1C(=O)c1ccccc1C2=O` (racemic) were, in that order, 383 nM and 1300 nM. As to `CCC[C@@H]1O[C@H](CC(=O)OCC)CC2=C1C(=O)c1ccccc1C2=O` (racemic), the result in assay [3] was inactive. As for `CCC[C@H]1O[C@H](CC(=O)OCC)CC2=C1C(=O)c1ccccc1C2=O` (racemic), the result in assay [3] was inactive. As to `CCOC(=O)C[C@@H]1CC2=C(C(=O)c3ccccc3C2=O)C(C)(C)O1` (racemic), the outcome in assay [3] was inactive. As for `CCOC(=O)C[C@@H]1CC2=C(C(=O)c3ccccc3C2=O)C2(CCCC2)O1` (racemic), the outcome in assay [3] was inactive. Same read-out and setting: then `CCOC(=O)C[C@@H]1CC2=C(C(=O)c3ccccc3C2=O)[C@@H](COCc2ccccc2)O1` (racemic), with “inactive”; and `CCOC(=O)C[C@@H]1CC2=C(C(=O)c3ccccc3C2=O)[C@H](c2ccc(N)cc2)O1` (racemic), with “inactive”.

For `CCOC(=O)C[C@@H]1CC2=C(C(=O)c3ccccc3C2=O)[C@H](c2ccc(O)cc2)O1` (racemic), the outcome in assay [3] was inactive.

Regarding `CCOC(=O)C[C@@H]1CC2=C(C(=O)c3ccccc3C2=O)[C@H](c2cccc(O)c2)O1` (racemic), in assay [3], the outcome was inactive. Consider `O=C1C[C@H]2O[C@H](c3ccsc3)C3=C(C(=O)c4ccccc4C3=O)[C@H]2O1` (stereo in doubt; (+)), for which the 50% inhibitory concentration (IC50) in assay [1] worked out at 122 nM; in assay [2] (Homo sapiens, MDA-MB-468) it was 300 nM. For `CCOC(=O)C[C@@H]1CC2=C(C(=O)c3ccccc3C2=O)[C@@H](c2ccsc2)O1` (stereo in doubt; (+)), the outcome in assay [3] was inactive.

Turning to `O=C1C[C@H]2O[C@H](c3ccsc3)C3=C(C(=O)c4ccccc4C3=O)[C@H]2O1` (stereo in doubt; (-)), the IC50 was 99 nM in assay [1] and 410 nM in assay [2] (mda-mb-468).

For `CCOC(=O)C[C@@H]1CC2=C(C(=O)c3ccccc3C2=O)[C@@H](c2ccsc2)O1` (stereo in doubt; (-)), the result in assay [3] was inactive.

In the case of `CCC[C@H]1O[C@H](CC(=O)O)CC2=C1C(=O)c1c(O)cccc1C2=O` [DEOXYFRENOLICIN], the IC50 in assay [1] came to 424 nM; in assay [2] (Homo sapiens, MDA-MB-468) it was 330 nM. Regarding `CCC[C@H]1O[C@@H]2CC(=O)O[C@@H]2C2=C1C(=O)c1c(O)cccc1C2=O` [FRENOLICIN B], the IC50 stood at 198 nM in assay [1] and 60 nM in assay [2] (Homo sapiens, MDA-MB-468).
